According to patent publication US10328077B2 (CELGENE CORPORATION, priority 2016, dated 2019):
Where two headings read alike, the source gives them in different places.

Legend:
[1] = system: Kasumi-1 AML cancer cell line; assay: Kasumi-1 AML cell line proliferation assay (Cell-MTS); assay type: cell-based; details: Homo sapiens, 168 hours
Description: Colorimetric cellular assay to assess the ability of LSD-1 small molecule inhibitors to effect the proliferation of the established AML cancer cell line Kasumi-1
This Cell-MTS assay is a 7-day plate based colorimetric assay which quantifies the amount of newly generated NADH in the presence and absence of test compound. These NADH levels are used as a proxy for the quantification of cancer cell proliferation.
The established cancer cell line Kasumi-1 with a verified p53 mutation were purchased from American Type Culture Collection (ATCC) and routinely passaged according to ATCC published protocols. For routine assay these cells were seeded at a density of 20,000 cells per 96-well. […] At the end of this compound incubation period, 80 μl of media is removed and 20 μL of CellTiter 96® AQueous Non-Radioactive Cell Proliferation Assay solution (Promega) is added. The cells are incubated until the OD490 is >0.6. IC50 values are calculated using the IDBS XLfit software package and include background subtracted OD490 values and normalization to DMSO controls.

[2] = system: CD11b expression in THP-1 (AML) cells; assay: LSD-1 CD11b cellular assay (flow cytometry); details: Homo sapiens, THP-1, 96 h, read-out: THP-1 IC50
Description: To analyze LSD-1 inhibitor efficacy in cells, a CD11b flow cytometry assay was performed. […] LSD-1 test compounds were serially diluted in DMSO. The dilutions were added to each well accordingly to a final concentration of 0.2% DMSO. The cells were incubated at 37 degrees Celsius in 5% CO2 for 4 days. 250 μL of each well was transferred to a well in a 96 well round bottom plate. The plate was centrifuged at 1200 rpm at 4 degrees Celsius in a Beckman Coulter Alegra 6KR centrifuge for 5 minutes. The media was removed leaving the cells at the bottom of the wells. The cells were washed in 100 μL cold HBSS (Hank's Balanced Salt Solution) plus 2% BSA (Bovine Serum Albumin) solution and centrifuged at 1200 rpm at 4 degrees Celsius for 5 minutes. The wash was removed. […] The cells were centrifuged and washed two times in 100 μl HBSS plus 2% BSA. After the final spin the cells were resuspended in 100 μL HBSS plus 2% BSA containing 1 μg/mL DAPI (4′,6-diamidino-2-phenylindole). The cells were then analyzed by flow cytometry in a BD FACSAria machine. Cells were analyzed for CD11b expression. The percent of CD11b expressing cells for each inhibitor concentration was used to determine an IC50 curve for each compound analyzed.

human LSD-1 = human LSD-1 (Homo sapiens (Human), UniProt O60341); assay: In vitro enzyme inhibition assay LSD-1 (TR-FRET); assay type: biochemical; details: TR-FRET, H3K4me1-biotin labeled peptide
Description: This assay determines the ability of a test compound to inhibit LSD-1 demethylase activity.
The enzymatic assay of LSD-1 activity is based on Time Resolved-Fluorescence Resonance Energy Transfer (TR-FRET) detection.

[3] = system: LXFS 573 SCLC patient-derived xenograft
[4] = Etoposide 24 mg/kg/day SC days 1-3 + vehicle

Row | Structure (SMILES) | IC50 [1] [nM] | IC50 [2] [nM] | IC50 (human LSD-1) [nM] | also measured
1 | CNC1CCN(c2nc(-c3ccc(C#N)c(F)c3)c(-c3ccc4nn(C)cc4c3)c(=O)n2C)CC1 [Example 65, 2-fluoro-4-[1-methyl-2-(4-methylamino-piperidin-1-yl)-5-(2-methyl-2H-indazol-5-yl)-6-oxo-1,6-dihydro-pyrimidin-4-yl]-benzonitrile] | < 100 | < 100 | < 100 | 
2 | CN(C)C1CCN(c2nc(-c3ccc(C#N)c(F)c3)c(-c3ccc4nn(C)cc4c3)c(=O)n2C)CC1 [Example 71, 4-[2-(4-dimethylamino-piperidin-1-yl)-1-methyl-5-(2-methyl-2H-indazol-5-yl)-6-oxo-1,6-dihydro-pyrimidin-4-yl]-2-fluoro-benzonitrile] | < 100 | < 100 | < 100 | 
3 | Cn1cc2cc(-c3c(-c4ccc(C#N)cc4)nc(N4CCC(N)CC4)n(C)c3=O)ccc2n1 [Example 24, 4-[2-(4-aminopiperidyl)-1-methyl-5-(2-methyl(2H-indazol-5-yl))-6-oxohydropyrimidin-4-yl]benzenecarbonitrile] | < 100 | < 100 |  | 
4 | COc1ccc(-c2c(-c3ccc(C#N)c(F)c3)nc(N3CCC(N)CC3)n(C)c2=O)cn1 [Example 8, 4-[2-(4-amino-piperidin-1-yl)-5-(6-methoxy-pyridin-3-yl)-1-methyl-6-oxo-1,6-dihydro-pyrimidin-4-yl]-2-fluoro-benzonitrile] | < 100 | < 100 | < 100 | 
5 | COc1cc([C@@H]2c3cc4c(cc3[C@@H](O[C@@H]3O[C@@H]5CO[C@@H](C)O[C@H]5[C@H](O)[C@H]3O)[C@H]3COC(=O)[C@H]23)OCO4)cc(OC)c1O [Etoposide, etoposide, reference compound] |  |  |  | % TGD (NCI-H1417 SCLC xenograft; 24 mg/kg Etoposide SC QD x 3): 92%; T − C (NCI-H1417 SCLC xenograft; 24 mg/kg Etoposide SC QD x 3): 24 days; median TTE (NCI-H1417 SCLC xenograft; 24 mg/kg Etoposide SC QD x 3): 50 days; median TTE (NCI-H1417 SCLC xenograft; etoposide monotherapy 24 mg/kg SC QD×3): 50 days; % TGD [3, 4]: 50%; T − C [3, 4]: 21 days; median TTE [3, 4]: 63 days; median TTE ([3]; etoposide monotherapy 24 mg/kg SC): 63 days
6 | Cc1ccc(-c2c(-c3ccc(C#N)cc3)nc(N3CCC(N)CC3)n(C)c2=O)cn1 [Example 4, 4-[2-(4-amino-piperidin-1-yl)-1-methyl-5-(6-methyl-pyridin-3-yl)-6-oxo-1,6-dihydro-pyrimidin-4-yl]-benzonitrile] | 100 to 1000 | < 100 | < 100 | 
7 | Cn1cc2cc(-c3c(-c4ccc(C#N)c(F)c4)nc(N4CCCNCC4)n(C)c3=O)ccc2n1 [Example 66, 4-[2-[1,4]diazepan-1-yl-1-methyl-5-(2-methyl-2H-indazol-5-yl)-6-oxo-1,6-dihydro-pyrimidin-4-yl]-2-fluoro-benzonitrile] | < 100 | < 100 | < 100 | 
8 | Cn1c(N2CCC(N)CC2)nc(-c2ccc(C#N)c(F)c2)c(-c2ccc3c(cnn3C)c2)c1=O [Example 35, 4-[2-(4-amino-piperidin-1-yl)-1-methyl-5-(1-methyl-1H-indazol-5-yl)-6-oxo-1,6-dihydro-pyrimidin-4-yl]-2-fluoro-benzonitrile] | < 100 | < 100 |  | 
9 | Cc1ccc(-c2c(-c3ccc(C#N)c(F)c3)nc(N3CCC(N)CC3)n(C)c2=O)cn1 [Example 9] | < 100 | < 100 | < 100 | 
10 | Cn1c(N2CCC(N)CC2)nc(-c2ccc(C#N)c(F)c2)c(-c2cnn(CC(F)(F)F)c2)c1=O [Example 34, 4-{2-(4-amino-piperidin-1-yl)-1-methyl-6-oxo-5-[1-(2,2,2-trifluoro-ethyl)-1H-pyrazol-4-yl]-1,6-dihydro-pyrimidin-4-yl}-2-fluoro-benzonitrile] | < 100 | < 100 | < 100 | 
11 | Cn1c(N2CCC(N)CC2)nc(-c2ccc(C#N)cc2)c(-c2cnn(CC(F)(F)F)c2)c1=O [Example 36, 4-{2-(4-amino-piperidin-1-yl)-1-methyl-6-oxo-5-[1-(2,2,2-trifluoro-ethyl)-1H-pyrazol-4-yl]-1,6-dihydro-pyrimidin-4-yl}-benzonitrile] | < 100 | < 100 | < 100 | 
12 | COc1ccc(-c2c(-c3ccc(C#N)c(F)c3)nc(N3CCC(N)CC3)n(C)c2=O)cc1 [Example 6, 4-[2-(4-amino-piperidin-1-yl)-5-(4-methoxy-phenyl)-1-methyl-6-oxo-1,6-dihydro-pyrimidin-4-yl]-2-fluoro-benzonitrile] | < 100 | < 100 | < 100 | 
13 | COc1ccc(-c2c(-c3ccc(C#N)cc3)nc(N3CCC(N)CC3)n(C)c2=O)cn1 [Example 3, 4-[2-(4-amino-piperidin-1-yl)-5-(6-methoxy-pyridin-3-yl)-1-methyl-6-oxo-1,6-dihydro-pyrimidin-4-yl]-benzonitrile] | < 100 | < 100 | < 100 | 
14 | Cn1c(N2CCC(N)CC2)nc(-c2ccc(C#N)c(F)c2)c(-c2ccc3[nH]ncc3c2)c1=O [Example 88, 4-[2-(4-aminopiperidin-1-yl)-5-(1H-indazol-5-yl)-1-methyl-6-oxopyrimidin-4-yl]-2-fluorobenzonitrile] | < 100 | < 100 | < 100 | 
15 | Cn1c(N2CCC(N)CC2)nc(-c2ccc(C#N)c(F)c2)c(-c2ccc(Cl)cc2)c1=O [Example 106, 4-[2-(4-aminopiperidin-1-yl)-5-(4-chlorophenyl)-1-methyl-6-oxopyrimidin-4-yl]-2-fluorobenzonitrile] |  | < 100 | < 100 | 
